Drawing on US9499550B2 (BRISTOL-MYERS SQUIBB COMPANY, priority 2012, dated 2016), this text covers EC50 for 9 compounds.

Test [1] relates to HCV genotype 1b (Con1) replicon in HUH-7 cells. Nature of the test: HCV replicon luciferase reporter assay, genotype 1b. Format: cell-based. Particulars: Hepatitis C virus, Huh-7, 72 h, HCV genotype 1b replicon luciferase assay, 3 days incubation, range class, read-out: LE_1b (EC50, range). The essentials: (§1)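 Replicon inhibition for both genotypes was measured as Renilla luciferase signal (EnduRen, 7.5 μM final, 2 h) after 3-day, 37° C exposure of replicon-bearing HUH-7 cells in 4% FCS DMEM, 0.5% DMSO. The 1b construct carries S1179I; the 1a H77 construct carries P1496L and S2204I. Twenty-point, 3-fold dilutions were fitted four-parametrically for EC50, and CC50 was taken from multiplexed Cell Titer-Blue.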

Test [2] concerns HCV genotype 1a (H77 strain) replicon in HUH-7 cells. Nature of the test: HCV replicon luciferase reporter assay, genotype 1a. It counts as cell-based. Particulars: Hepatitis C virus, Huh-7, 72 h, HCV genotype 1a replicon luciferase assay, 3 days incubation, range class, read-out: LE_1a (EC50, range). The essentials:
as §1
On the technique in general: In antiviral work, replicon cells carry a viral genome segment that copies itself.

The structures appear in SMILES notation.

On to `COc1ccc2c(O[C@@H]3C[C@H]4C(=O)N[C@]5(C(=O)NS(=O)(=O)C6(C)CC6)C[C@H]5/C=C\CC[C@H](C)C[C@@H](C)[C@H](NC(=O)OCC5(C)CC5)C(=O)N4C3)nc(N3CCOCC3)cc2c1` [Compound 3090, (1-methylcyclopropyl)methyl ((2R,6S,7R,9S,13aS,14aR,16aS,Z)-2-((6-methoxy-3-morpholinoisoquinolin-1-yl)oxy)-7,9-dimethyl-14a-(((1-methylcyclopropyl)sulfonyl)carbamoyl)-5,16-dioxo-1,2,3,5,6,7,8,9,10,11,13a,14,14a,15,16,16a-hexadecahydrocyclopropa[e]pyrrolo[1,2-a][1,4]diazacyclopentadecin-6-yl)carbamate], for which the figures for the EC50 in test [1] and in test [2] were under 5.46 nM and 4.82 to 103 nM, respectively.
In the same order, the values of `COc1ccc2c(O[C@@H]3C[C@H]4C(=O)N[C@]5(C(=O)NS(=O)(=O)C6(C)CC6)C[C@H]5/C=C\CC[C@@H](C)C[C@@H](C)[C@H](NC(=O)OCC5(C)CC5)C(=O)N4C3)nc(N3CCOCC3)cc2c1` [Compound 3091, (1-methylcyclopropyl)methyl ((2R,6S,7R,9R,13aS,14aR,16aS,Z)-2-((6-methoxy-3-morpholinoisoquinolin-1-yl)oxy)-7,9-dimethyl-14a-(((1-methylcyclopropyl)sulfonyl)carbamoyl)-5,16-dioxo-1,2,3,5,6,7,8,9,10,11,13a,14,14a,15,16,16a-hexadecahydrocyclopropa[e]pyrrolo[1,2-a][1,4]diazacyclopentadecin-6-yl)carbamate] are under 5.46 nM and under 5.46 nM.
In the same order, the values of `COc1ccc2c(O[C@@H]3C[C@H]4C(=O)N[C@]5(C(=O)NS(=O)(=O)C6(C)CC6)C[C@H]5/C=C\CC[C@H](C)C[C@@H](C)[C@H](NC(=O)O[C@H](C)C(F)(F)F)C(=O)N4C3)nc(N3CCOCC3)cc2c1` [Compound 3092, (R)-1,1,1-trifluoropropan-2-yl ((2R,6S,7R,9S,13aS,14aR,16aS,Z)-2-((6-methoxy-3-morpholinoisoquinolin-1-yl)oxy)-7,9-dimethyl-14a-(((1-methylcyclopropyl)sulfonyl)carbamoyl)-5,16-dioxo-1,2,3,5,6,7,8,9,10,11,13a,14,14a,15,16,16a-hexadecahydrocyclopropa[e]pyrrolo[1,2-a][1,4]diazacyclopentadecin-6-yl)carbamate] are under 5.46 nM and under 5.46 nM.
In the same order, the values of `COc1ccc2c(O[C@@H]3C[C@H]4C(=O)N[C@]5(C(=O)NS(=O)(=O)C6(C)CC6)C[C@H]5/C=C\CC[C@@H](C)C[C@@H](C)[C@H](NC(=O)O[C@H](C)C(F)(F)F)C(=O)N4C3)nc(N3CCOCC3)cc2c1` [Compound 3093, (R)-1,1,1-trifluoropropan-2-yl ((2R,6S,7R,9R,13aS,14aR,16aS,Z)-2-((6-methoxy-3-morpholinoisoquinolin-1-yl)oxy)-7,9-dimethyl-14a-(((1-methylcyclopropyl)sulfonyl)carbamoyl)-5,16-dioxo-1,2,3,5,6,7,8,9,10,11,13a,14,14a,15,16,16a-hexadecahydrocyclopropa[e]pyrrolo[1,2-a][1,4]diazacyclopentadecin-6-yl)carbamate] are under 5.46 nM and under 5.46 nM.
As to `COc1ccc2c(O[C@@H]3C[C@H]4C(=O)N[C@]5(C(=O)NS(=O)(=O)C6(C)CC6)C[C@H]5/C=C\CC[C@H](C)C[C@@H](C)[C@H](NC(=O)OC(C)(C)C(F)(F)F)C(=O)N4C3)nc(N3CCOCC3)cc2c1` [Compound 3094, 1,1,1-trifluoro-2-methylpropan-2-yl((2R,6S,7R,9S,13aS,14aR,16aS,Z)-2-((6-methoxy-3-morpholinoisoquinolin-1-yl)oxy)-7,9-dimethyl-14a-(((1-methylcyclopropyl)sulfonyl)carbamoyl)-5,16-dioxo-1,2,3,5,6,7,8,9,10,11,13a,14,14a,15,16,16a-hexadecahydrocyclopropa[e]pyrrolo[1,2-a][1,4]diazacyclopentadecin-6-yl)carbamate], the EC50 (usually the concentration at which the effect is half-maximal) in test [1] was under 5.46 nM; in test [2] it was 4.82 to 103 nM.
The matching figures for `COc1ccc2c(O[C@@H]3C[C@H]4C(=O)N[C@]5(C(=O)NS(=O)(=O)C6(C)CC6)C[C@H]5/C=C\CC[C@@H](C)C[C@@H](C)[C@H](NC(=O)OC(C)(C)C(F)(F)F)C(=O)N4C3)nc(N3CCOCC3)cc2c1` [Compound 3095, 1,1,1-trifluoro-2-methylpropan-2-yl((2R,6S,7R,9R,13aS,14aR,16aS,Z)-2-((6-methoxy-3-morpholinoisoquinolin-1-yl)oxy)-7,9-dimethyl-14a-(((1-methylcyclopropyl)sulfonyl)carbamoyl)-5,16-dioxo-1,2,3,5,6,7,8,9,10,11,13a,14,14a,15,16,16a-hexadecahydrocyclopropa[e]pyrrolo[1,2-a][1,4]diazacyclopentadecin-6-yl)carbamate]: under 5.46 nM and under 5.46 nM.
The matching figures for `COc1ccc2c(O[C@@H]3C[C@H]4C(=O)N[C@]5(C(=O)NS(=O)(=O)C6(C)CC6)C[C@H]5/C=C\CC[C@H](C)C[C@@H](C)[C@H](NC(=O)O[C@@H]5C[C@@H]6C[C@@H]6C5)C(=O)N4C3)nc(N3CCOCC3)cc2c1` [Compound 3096, (1R,3r,5S)-bicyclo[3.1.0]hexan-3-yl((2R,6S,7R,9S,13aS,14aR,16aS,Z)-2-((6-methoxy-3-morpholinoisoquinolin-1-yl)oxy)-7,9-dimethyl-14a-(((1-methylcyclopropyl)sulfonyl)carbamoyl)-5,16-dioxo-1,2,3,5,6,7,8,9,10,11,13a,14,14a,15,16,16a-hexadecahydrocyclopropa[e]pyrrolo[1,2-a][1,4]diazacyclopentadecin-6-yl)carbamate]: under 5.46 nM and 4.82 to 103 nM.
With `COc1ccc2c(O[C@@H]3C[C@H]4C(=O)N[C@]5(C(=O)NS(=O)(=O)C6(C)CC6)C[C@H]5/C=C\CC[C@@H](C)C[C@@H](C)[C@H](NC(=O)O[C@@H]5C[C@@H]6C[C@@H]6C5)C(=O)N4C3)nc(N3CCOCC3)cc2c1` [Compound 3097, (1R,3r,5S)-bicyclo[3.1.0]hexan-3-yl((2R,6S,7R,9R,13aS,14aR,16aS,Z)-2-((6-methoxy-3-morpholinoisoquinolin-1-yl)oxy)-7,9-dimethyl-14a-(((1-methylcyclopropyl)sulfonyl)carbamoyl)-5,16-dioxo-1,2,3,5,6,7,8,9,10,11,13a,14,14a,15,16,16a-hexadecahydrocyclopropa[e]pyrrolo[1,2-a][1,4]diazacyclopentadecin-6-yl)carbamate], the EC50 in test [1] and in test [2] was under 5.46 nM each time.
As to `COc1ccc2c(O[C@@H]3C[C@H]4C(=O)N[C@]5(C(=O)NS(=O)(=O)C6CC6)C[C@H]5/C=C\CC[C@H](C)C[C@@H](C)[C@H](NC(=O)OC(C)(C)C(F)(F)F)C(=O)N4C3)nc(N3CCOCC3)cc2c1` [Compound 3098, 1,1,1-trifluoro-2-methylpropan-2-yl((2R,6S,7R,9S,13aS,14aR,16aS,Z)-14a-((cyclopropylsulfonyl)carbamoyl)-2-((6-methoxy-3-morpholinoisoquinolin-1-yl)oxy)-7,9-dimethyl-5,16-dioxo-1,2,3,5,6,7,8,9,10,11,13a,14,14a,15,16,16a-hexadecahydrocyclopropa[e]pyrrolo[1,2-a][1,4]diazacyclopentadecin-6-yl)carbamate], the EC50 in test [1] and in test [2] was under 5.46 nM in each case.
